Patent US20240408169A1 (priority 2023, published 2024)
Like-named read-outs stand apart in the source and are kept apart here. *1 amine or outer side, *2 acyl side, *3 side chain or, on linkers, in order; H or OH if unused. Where a SMILES comes first, the peptide text is derived from it. Bridges are numbered along the chain shown (N, C = ends). [ ]: non-standard residue; d: D form. The star is where a group is joined. X144 = CN([C@@H](Cc1cc(Cl)ccc1-c1ccc(N2CC(C)(F)C2)nc1)C(=O)[*:2])[*:1]; X175 = Cc1cc(-c2ccc(Cl)cc2C[C@@H](C(=O)[*:2])N(C)[*:1])ccc1N1CCOCC1; X137 = CN([C@@H](Cc1cc(F)ccc1-c1cnn(S(C)(=O)=O)c1)C(=O)[*:2])[*:1]; X186 = CN([C@@H](Cc1cc(Cl)ccc1-c1ccc(N2CCOCC2)cn1)C(=O)[*:2])[*:1]; X151 = CN([C@@H](Cc1cc(Cl)ccc1-c1cnn(C2CCC2)c1)C(=O)[*:2])[*:1]; X172 = CC(=O)N1CC=C(c2ccc(F)cc2C[C@@H](C(=O)[*:2])N(C)[*:1])CC1; X184 = CC(=O)N1CCC(c2ccc(F)cc2C[C@@H](C(=O)[*:2])N(C)[*:1])CC1; NMehhhLys(Me) = CN([C@@H](CCCCCCCN(C)[*:3])C(=O)[*:2])[*:1]; X118 = Cc1cc(-c2ccc(Cl)cc2C[C@@H](C(=O)[*:2])N(C)[*:1])cnn1; X139 = Cc1[nH]ncc1-c1ccc(Cl)cc1C[C@@H](C(=O)[*:2])N(C)[*:1]; NMe3Pal(2-OcPr,5-F) = CN[C@@H](Cc1cc(F)cnc1OC1CC1)C(=O)O; X199 = CN([C@@H](Cc1cc(Cl)ccc1C1=CCOC1)C(=O)[*:2])[*:1]; NMe(hhhLys) = CN([C@@H](CCCCCCCN[*:3])C(=O)[*:2])[*:1]; cBuCO(3,3-F2-1-CF3) = O=C(C1(C(F)(F)F)CC(F)(F)C1)*; Pro(trans-4-F) = O=C(O)[C@@H]1C[C@@H](F)CN1; Pivaloyl(3,3,3-F3) = CC(C)(C(=O)*)C(F)(F)F; Gly(cPr) = N[C@H](C(=O)O)C1CC1

What was measured:
[1] = test system: OVCAR3 cells; experiment: MTT proliferation assay, OVCAR3; format: cell-based; settings: 5 days compound exposure, 1:3 serial dilution starting at 10 μM;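 note: compound given as an 8- or 10-point series, one day after plating, with exposure covering roughly 3-4 cell doublings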
[2] = biological target: T1, CyclinA2/CDK2 (Homo sapiens, UniProt P20248); experiment: Fluorescence Polarization (FP) competitive binding assay, Cyclin A2/Cdk2;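 note: plates equilibrated two hours at room temperature before polarization reading, IC50 fitted from eight-concentration compound titration curves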
T1 construct: purchased CRELUX Protein Services

[3] = test system: NCI-H1048 cells; experiment: MTT proliferation assay, NCI-H1048; format: cell-based; settings: 5 days compound exposure, 1:3 serial dilution starting at 10 μM;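 note: Dose-response in 96-well plates over 8 or 10 concentration points, with exposure spanning 3-4 cell doublings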
[4] = biological target: T2, CyclinB1/CDK1 (Homo sapiens, UniProt P14635); experiment: Fluorescence Polarization (FP) competitive binding assay, Cyclin B1/Cdk1;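 note: fluorescence polarization read after equilibration at room temperature, with IC50 taken from serially diluted dose-response curves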
T2 construct: purchased Eurofins, discovery 14-450

[5] = biological target: T3, CyclinE1/CDK2 (Homo sapiens, UniProt P24864); experiment: Fluorescence Polarization (FP) competitive binding assay, Cyclin E1/Cdk2;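 note: readings taken after two-hour equilibration at room temperature in HEPES buffer with NaCl, DTT, NP-40 and BSA, IC50 fitted from eight-concentration serial dilution series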
T3 construct: purchased Eurofins, discovery 14-475

[6] = 8 nM Cyclin A2/Cdk2, 2 nM FAM probe, average of 2-3 independent experiments, read-out: Cyclin A FP IC50
[7] = 10 nM Cyclin B1/Cdk1, 2 nM FAM probe; average of 2-3 independent experiments; read-out: Cyclin B FP IC50
[8] = 10 nM Cyclin E1/Cdk2, 2 nM FAM probe, average of 2-3 independent experiments, read-out: Cyclin E FP IC50
[9] = read-out: Cyclin B FP IC50; 10 nM Cyclin B1/Cdk1, 2 nM FAM probe; average of 2-3 independent experiments

Compound	GI50 [1] [nM]	IC50 [2, 6] [nM]	GI50 [3] [nM]	IC50 [4, 7] [nM]	IC50 [5, 8] [nM]	IC50 [2] [nM]	IC50 [4, 9] [nM]	IC50 [5] [nM]	IC50 ([2]; read-out: Cyclin A FP IC50, 8 nM Cyclin A2/Cdk2, 2 nM FAM probe, average of 2-3 independent experiments) [nM]
CC(=O)N1CC=C(c2ccc(Cl)cc2C[C@H]2C(=O)N(C)CCCCC=CC[C@H](N(C)C(=O)[C@@H](NC(=O)[C@@H]3C[C@@H](F)CN3C(=O)C3(C(F)(F)F)CC(F)(F)C3)C3CC3)C(=O)N[C@@H](CC(C)C)C(=O)N2C)CC1 [Example 31]	150	30	80	20	2200	–	–	–	–
CC(=O)N1CCC(c2ccc(F)cc2C[C@H]2C(=O)N(C)CCCCCCC[C@H](N(C)C(=O)[C@@H](NC(=O)[C@@H]3C[C@@H](F)CN3C(=O)C3(C(F)(F)F)CC(F)(F)C3)C3CC3)C(=O)N[C@@H](CC(C)C)C(=O)N2C)CC1 [Example 45, (2S,4R)—N—((S)-2-(((3S,6S,9S)-3-(2-(1-acetylpiperidin-4-yl)-5-fluorobenzyl)-6-isobutyl-1,4-dimethyl-2,5,8-trioxo-1,4,7-triazacyclohexadecan-9-yl)(methyl)amino)-1-cyclopropyl-2-oxoethyl)-1-(3,3-difluoro-1-(trifluoromethyl)cyclobutane-1-carbonyl)-4-fluoropyrrolidine-2-carboxamide] ({cBuCO(3,3-F2-1-CF3)}-[Pro(trans-4-F)][Gly(cPr)][NMehhhLys(Me)]L[X184]; lactam 3-C)	40	100	20	20	330	–	–	–	–
CC(C)C[C@@H]1NC(=O)[C@@H](NC(=O)CNC(=O)[C@@H]2C[C@@H](F)CN2C(=O)C2(C(F)(F)F)CC2)CC=CCCCCNC(=O)[C@H](Cc2cc(Cl)ccc2Cl)N(C)C1=O [Example 3]	720	620	460	20	680	–	–	–	–
CC(C)C[C@@H]1NC(=O)[C@@H](N(C)C(=O)[C@@H](NC(=O)[C@@H]2C[C@@H](F)CN2C(=O)C2(C(F)(F)F)CC(F)(F)C2)C2CC2)CCCCCCCNC(=O)[C@H](Cc2cc(F)cnc2OC2CC2)N(C)C1=O [Example 127] ({cBuCO(3,3-F2-1-CF3)}-[Pro(trans-4-F)][Gly(cPr)][NMe(hhhLys)]L[NMe3Pal(2-OcPr,5-F)]; lactam 3-C)	30	80	30	20	230	–	–	–	–
Cc1nnc(-c2ccc(Cl)cc2C[C@H]2C(=O)NCCCCC=CC[C@H](N(C)C(=O)[C@@H](NC(=O)[C@@H]3C[C@@H](F)CN3C(=O)C3(C(F)(F)F)CC(F)(F)C3)C3CC3)C(=O)N[C@@H](CC(C)C)C(=O)N2C)o1 (single isomer, unassigned) [Example 118-P1]	170	110	180	20	740	–	–	–	–
Cc1cc(-c2ccc(Cl)cc2C[C@H]2C(=O)NCCCCCCC[C@H](N(C)C(=O)[C@@H](NC(=O)[C@@H]3C[C@@H](F)CN3C(=O)C3(C(F)(F)F)CC(F)(F)C3)C3CC3)C(=O)N[C@@H](CC(C)C)C(=O)N2C)cnn1 [Example 295] ({cBuCO(3,3-F2-1-CF3)}-[Pro(trans-4-F)][Gly(cPr)][NMe(hhhLys)]L[X118]; lactam 3-C)	160	70	80	20	3690	–	–	–	–
COCn1cc(-c2ccc(Cl)cc2C[C@H]2C(=O)N(C)CCCCC=CC[C@H](N(C)C(=O)[C@@H](NC(=O)[C@@H]3C[C@@H](F)CN3C(=O)C3(C(F)(F)F)CC(F)(F)C3)C3CC3)C(=O)N[C@@H](CC(C)C)C(=O)N2C)cn1 [Example 79]	40	50	30	20	630	–	–	–	–
CC(C)C[C@@H]1NC(=O)[C@@H](N(C)C(=O)[C@@H](NC(=O)[C@@H]2C[C@@H](F)CN2C(=O)C2(C(F)(F)F)CC(F)(F)C2)C2CC2)CCCCCCCN(C)C(=O)[C@H](Cc2cc(Cl)ccc2-c2ccc(N3CCOCC3)cn2)N(C)C1=O [Example 382] ({cBuCO(3,3-F2-1-CF3)}-[Pro(trans-4-F)][Gly(cPr)][NMehhhLys(Me)]L[X186]; lactam 3-C)	40	40	90	20	2490	–	–	–	–
CC(C)C[C@@H]1NC(=O)[C@@H](N(C)C(=O)[C@@H](NC(=O)[C@@H]2C[C@@H](F)CN2C(=O)C(C)(C)C(F)(F)F)C2CC2)CCCCCCCN(C)C(=O)[C@H](Cc2cc(F)ccc2-c2cnn(S(C)(=O)=O)c2)N(C)C1=O [Example 304] ({Pivaloyl(3,3,3-F3)}-[Pro(trans-4-F)][Gly(cPr)][NMehhhLys(Me)]L[X137]; lactam 3-C)	10	40	10	20	190	–	–	–	–
CC(C)C[C@@H]1NC(=O)[C@@H](N(C)C(=O)[C@@H](NC(=O)[C@@H]2C[C@@H](F)CN2C(=O)C2(C(F)(F)F)CC(F)(F)C2)C2CC2)CC=CCCCCN(C)C(=O)[C@H](Cc2cc(F)ccc2-c2cnn(S(C)(=O)=O)c2)N(C)C1=O [Example 87]	60	180	50	20	890	–	–	–	–
Cc1cc(-c2ccc(Cl)cc2C[C@H]2C(=O)N(C)CCCCCCC[C@H](N(C)C(=O)[C@@H](NC(=O)[C@@H]3C[C@@H](F)CN3C(=O)C3(C(F)(F)F)CC(F)(F)C3)C3CC3)C(=O)N[C@@H](CC(C)C)C(=O)N2C)ccc1N1CCOCC1 [Example 344] ({cBuCO(3,3-F2-1-CF3)}-[Pro(trans-4-F)][Gly(cPr)][NMehhhLys(Me)]L[X175]; lactam 3-C)	20	20	10	20	1270	–	–	–	–
CC(C)C[C@@H]1NC(=O)[C@@H](N(C)C(=O)[C@@H](NC(=O)[C@@H]2C[C@@H](F)CN2C(=O)C2(C(F)(F)F)CCC2)C2CC2)CC=CCCCCN(C)C(=O)[C@H](Cc2cc(F)ccc2-c2cncnc2)N(C)C1=O [Example 41]	130	160	100	20	810	–	–	–	–
CC(C)C[C@@H]1NC(=O)[C@@H](N(C)C(=O)[C@@H](NC(=O)[C@@H]2C[C@@H](F)CN2C(=O)C2(C(F)(F)F)CC(F)(F)C2)C2CC2)CCCCCCCN(C)C(=O)[C@H](Cc2cc(Cl)ccc2-c2ccc(N3CC(C)(F)C3)nc2)N(C)C1=O [Example 402] ({cBuCO(3,3-F2-1-CF3)}-[Pro(trans-4-F)][Gly(cPr)][NMehhhLys(Me)]L[X144]; lactam 3-C)	10	20	40	20	960	–	–	–	–
Cc1[nH]ncc1-c1ccc(Cl)cc1C[C@H]1C(=O)N(C)CCCCCCC[C@H](N(C)C(=O)[C@@H](NC(=O)[C@@H]2C[C@@H](F)CN2C(=O)C2(C(F)(F)F)CC(F)(F)C2)C2CC2)C(=O)N[C@@H](CC(C)C)C(=O)N1C [Example 211] ({cBuCO(3,3-F2-1-CF3)}-[Pro(trans-4-F)][Gly(cPr)][NMehhhLys(Me)]L[X139]; lactam 3-C)	30	–	20	–	–	50	20	1110	–
CC(C)C[C@@H]1NC(=O)[C@@H](N(C)C(=O)[C@@H](NC(=O)[C@@H]2C[C@@H](F)CN2C(=O)C2(C(F)(F)F)CC(F)(F)C2)C2CC2)CCCCCCCN(C)C(=O)[C@H](Cc2cc(Cl)ccc2-c2cnn(C3CCC3)c2)N(C)C1=O [Example 112] ({cBuCO(3,3-F2-1-CF3)}-[Pro(trans-4-F)][Gly(cPr)][NMehhhLys(Me)]L[X151]; lactam 3-C)	10	20	10	20	340	–	–	–	–
Cc1nnc(-c2ccc(Cl)cc2C[C@H]2C(=O)N(C)CCCCC=CC[C@H](N(C)C(=O)[C@@H](NC(=O)[C@@H]3C[C@@H](F)CN3C(=O)C3(C(F)(F)F)CC(F)(F)C3)C3CC3)C(=O)N[C@@H](CC(C)C)C(=O)N2C)o1 [Example 116]	50	40	40	20	330	–	–	–	–
CC(=O)N1CC=C(c2ccc(F)cc2C[C@H]2C(=O)NCCCCCCC[C@H](N(C)C(=O)[C@@H](NC(=O)[C@@H]3C[C@@H](F)CN3C(=O)C3(C(F)(F)F)CC(F)(F)C3)C3CC3)C(=O)N[C@@H](CC(C)C)C(=O)N2C)CC1 [Example 217] ({cBuCO(3,3-F2-1-CF3)}-[Pro(trans-4-F)][Gly(cPr)][NMe(hhhLys)]L[X172]; lactam 3-C)	20	30	10	20	760	–	–	–	–
CC(C)C[C@@H]1NC(=O)[C@@H](N(C)C(=O)[C@@H](NC(=O)[C@@H]2C[C@@H](F)CN2C(=O)C2(C(F)(F)F)CC(F)(F)C2)C2CC2)CCCCCCCN(C)C(=O)[C@H](Cc2cc(Cl)ccc2C2=CCOC2)N(C)C1=O [Example 209] ({cBuCO(3,3-F2-1-CF3)}-[Pro(trans-4-F)][Gly(cPr)][NMehhhLys(Me)]L[X199]; lactam 3-C)	20	–	10	–	–	–	20	540	20
CC(=O)N1CC=C(c2ccc(F)cc2C[C@H]2C(=O)N(C)CCCCC=CC[C@H](N(C)C(=O)[C@@H](NC(=O)[C@@H]3C[C@@H](F)CN3C(=O)C3(C(F)(F)F)CCC3)C3CC3)C(=O)N[C@@H](CC(C)C)C(=O)N2C)CC1 [Example 42]	210	40	70	20	440	–	–	–	–
